Results: US20200140812A1, “NOVEL METHODS FOR THE GENERATION AND USE OF HUMAN INDUCED NEURAL BORDER STEM CELLS” (HI-STEM gGmbH, priority 2017, published 2020)

How the values were obtained:
[1] = biological target: T1, P2RX3-receptors (Homo sapiens, UniProt P56373); assay: Calcium flux measurements (Fluo-3 AM) in iNBSC-derived sensory neurons; assay type: cell-based
T1 construct: endogenous in cells; host or cells: sensory neurons differentiated from human iNBSCs (WT and SCN9a-/- cultures)
T1 sequence (P56373 1-397): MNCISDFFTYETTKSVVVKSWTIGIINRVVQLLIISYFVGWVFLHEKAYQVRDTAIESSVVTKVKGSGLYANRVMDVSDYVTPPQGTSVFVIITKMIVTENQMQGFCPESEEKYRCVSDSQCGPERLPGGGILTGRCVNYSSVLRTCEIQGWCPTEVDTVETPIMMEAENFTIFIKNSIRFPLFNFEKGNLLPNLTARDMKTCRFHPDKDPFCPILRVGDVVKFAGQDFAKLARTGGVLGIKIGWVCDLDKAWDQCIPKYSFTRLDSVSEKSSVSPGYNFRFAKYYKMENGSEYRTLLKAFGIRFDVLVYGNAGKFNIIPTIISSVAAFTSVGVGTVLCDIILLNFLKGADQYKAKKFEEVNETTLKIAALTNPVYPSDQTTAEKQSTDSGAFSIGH
Method: Cell cultures were incubated in a solution containing the cell-permeable fluorescent Ca2+ indicator Fluo-3 AM (2 μM; F1242, Thermo Scientific™) and Cell Tracker Red CMTPX (1 μM; C34552, Thermo Scientific™) to delineate cell membranes. Dye loading was carried out in an incubator at 37° C., 5% CO2 for 30 min.
Imaging of fluorescently labeled cells was performed on a TCS SP5 microscope (Leica) equipped with a 20×(1 numerical aperture) water-immersion objective. Images (512×512 pixels) were acquired at 1000 Hz speed every 0.8-1.6 seconds with 0.5 μm per pixel resolution in the xy dimension, and 3-4 μm steps in the z dimension. Argon and HeNe-543 lasers were used to excite Fluo-3 AM and Cell Tracker Red CMTPX dyes, respectively. […] After recording baseline fluorescence for 2 minutes, α,β-methylene ATP was applied (30 μM in ACSF; COMPANY) for 2 minutes. […]
We obtained relative fluorescence changes (Fi/F0), where F0 is the fluorescence image formed by averaging the first 50 frames of the sequence, and F(i) represents each (i) frame of the recording. […]
We then studied global calcium activity by averaging fluorescence intensity in the whole image before and in response to stimulation with α,β-methylene ATP in WT−(n=3) and SCN9−/− (n=4) neuronal cultures.

[2] = system: pNBSCs; assay: Culture of pNBSCs on Matrigel in absence of feeders with Notch-ligands; assay type: cell-based, mouse; settings: cultured on MG with DII4 and Jagged1 together, 500 ng/ml each
Method: a, Preparation of E8.5 stage embryos for isolation of pNBSCs. Representative microscopy pictures of an E8.5 stage embryo prior to dissection of neural tissue. […] Results are shown for two independent pNBSC clones and E13.5 stage derived RG-like SCs (n=3; t-test, **P<0.01, Mean with SEM). g, Culture of pNBSCs on inactivated MEFs (feeder) or Matrigel in presence or absence of Notch-ligands 500 ng/ml DII4 and 500 ng/ml Jagged-1. h, Regional identity of pNBSCs. mRNA expression of region specific markers was determined in three independent pNBSCs lines. Expression was normalized to whole E13.5 stage fetal brains. i, Flow cytometry data of a pNBSC line under maintenance and neural crest priming condition. pNBSCs were either cultured in CAP or CA+BMP4 for 5 days before levels of Ssea1 and P75 were determined by flow cytometry. j, Immunofluorescence stainings for serotonin on neuronal differentiation. pNBSCs were differentiated in presence of Purmorphamine for 3 days and matured for additional 2 weeks before stainings were performed; scale bar 50 μm. k, BF pictures of pNBSCs embedded as single cell suspension in MG after CNS- and NC-priming. pNBSCs were cultured in CSP for 6 days (upper panel) or CABF for 10 days (lower panel). […]

Compound	rapid differentiation of pNBSCs in the absence of feeders [2]	also measured
O=C(O)c1cc(C(=O)O)c(C(=O)N(Cc2cccc(Oc3ccccc3)c2)[C@H]2CCCc3ccccc32)cc1C(=O)O [A-317491]	–	α,β-Methylene-ATP-induced calcium flux (neuronal activity) in the presence of antagonist ([1]; 1 μM A-317491, stimulation with 30 μM α,β-methylene ATP, WT sensory neurons, compared to controls, t-test P<0.05): significantly reduced
Nc1ncnc2c1ncn2[C@@H]1O[C@H](COP(=O)(O)CP(=O)(O)OP(=O)(O)O)[C@@H](O)[C@H]1O [α,β-Methylene-ATP]	–	neuronal activity by calcium flux measurements upon stimulation ([1]; 30 μM α,β-methylene ATP, WT iNBSC-derived sensory neurons, Fluo-3 AM fluorescence relative to baseline): robust increase of activity
DII4: Notch-ligand	partially halted	–
Jagged1: Notch-ligand	partially halted	–
